Results on one compound are retold here after EP0324130A2, “8-Glycine, 16-X, Des-19-Leucine-Calcitonin” (RORER INTERNATIONAL (OVERSEAS) INC. (a Delaware corporation), priority 1987, dated 1989).

Peptide text beside a SMILES is read from it.

This assay has as its system serum calcium concentration. To be noted: rat, in vivo, sc.

Protocol: Biological Assay of Calcitonin Analogs in Vivo
The biological potency of 8-glycine, 16-alanine des-19-leucine salmon calcitonin was determined by comparing the reduction of serum calcium concentration which followed administration by graded doses of Gly^8, Ala^16, des-Ley^19-SCT and synthetic salmon calcitonin standard. Rats were divided into four groups of seven animals, and each group was assigned at random to a dose of standard or test solution. Low and high doses were chosen from the linear portion of the dose-response curve. For the salmon calcitonin standard, the values were 0.7 and 2.1 ng. peptide/100 g. […] This does approximates 3 and 9 MU/100 g. […] Peptides were given by subcutaneous injection (0.2 ml/100 g. BW) and blood was withdrawn 1 hour later for serum calcium determination. Sera are processed and analyzed within two hours of collection.

With `CC(C)C[C@H](NC(=O)CNC(=O)[C@@H]1CSSC[C@H](N)C(=O)N[C@@H](CO)C(=O)N[C@@H](CC(N)=O)C(=O)N[C@@H](CC(C)C)C(=O)N[C@@H](CO)C(=O)N[C@@H]([C@@H](C)O)C(=O)N1)C(=O)NCC(=O)N[C@@H](CCCCN)C(=O)N[C@@H](CC(C)C)C(=O)N[C@@H](CO)C(=O)N[C@@H](CCC(N)=O)C(=O)N[C@@H](CCC(=O)O)C(=O)N[C@@H](C)C(=O)N[C@@H](Cc1c[nH]cn1)C(=O)N[C@@H](CCCCN)C(=O)N[C@@H](CCC(N)=O)C(=O)N[C@H](C(=O)N[C@@H](Cc1ccc(O)cc1)C(=O)N1CCC[C@H]1C(=O)N[C@@H](CCCNC(=N)N)C(=O)N[C@H](C(=O)N[C@@H](CC(N)=O)C(=O)N[C@H](C(=O)NCC(=O)N[C@@H](CO)C(=O)NCC(=O)N[C@H](C(=O)N1CCC[C@H]1C(N)=O)[C@@H](C)O)[C@@H](C)O)[C@@H](C)O)[C@@H](C)O` [Gly^8, Ala^16, des-Leu'^9-SCT, [8-Glycine, 16-Alanine, des-19-Leucine] salmon calcitonin] (HELM PEPTIDE1{C.S.N.L.S.T.C.G.L.G.K.L.S.Q.E.A.H.K.Q.T.Y.P.R.T.N.T.G.S.G.T.P.[am]}$PEPTIDE1,PEPTIDE1,1:R3-7:R3$$$V2.0), the biological potency is 2,500 IU/mg.
